Active and inactive are the calls of the source. The calls are words filed in the database; no cut-off is given here.
How the values were obtained:
[1] = Neurotoxicity in ip dosed albino mouse assessed as inability to maintain equilibrium on rotarod after 30 mins by rotarod test; format: toxicity, organism-based; details: in vivo
Mus musculus [2] = experiment: Anticonvulsant activity in ip dosed albino mouse assessed as protection against MES-induced seizures after 4 hrs; format: functional
Mus musculus [3] = experiment: Anticonvulsant activity in ip dosed albino mouse assessed as protection against scPTZ-induced seizures after 30 mins; format: functional; details: 0.5 h
Mus musculus [4] = experiment: Anticonvulsant activity in ip dosed albino mouse assessed as protection against scPTZ-induced seizures after 4 hrs; format: functional
Mus musculus [5] = experiment: Anticonvulsant activity in ip dosed albino mouse assessed as protection against MES-induced seizures after 30 mins; format: functional; details: 0.5 h

Compound	TD50 at 0.5 h [1] [mg/kg]	ED50 (Mus musculus [2])	ED50 (Mus musculus [3]) [mg/kg]	ED50 (Mus musculus [4])	ED50 (Mus musculus [5]) [mg/kg]
Cc1nn(-c2ccccc2)c(Cl)c1/C=N/NC(=O)COc1ccccc1	300				
Cc1nn(-c2ccccc2)c(Cl)c1/C=N/NC(=O)c1ccccc1	100				
Cc1nn(-c2ccccc2)c(Cl)c1/C=N/NC(=O)c1ccc([N+](=O)[O-])cc1		300 mg/kg	300	inactive	100
Cc1nn(-c2ccccc2)c(Cl)c1/C=N/NC(=O)c1ccc(F)cc1		100 mg/kg	100	100 mg/kg	100
O=C1NC(=O)C(c2ccccc2)(c2ccccc2)N1 [PHENYTOIN]		30 mg/kg			30
Cc1nn(-c2ccccc2)c(Cl)c1/C=N/NC(=O)Cc1ccc(Cl)cc1	300	300 mg/kg	100	300 mg/kg	100
Cc1nn(-c2ccccc2)c(Cl)c1/C=N/NC(=O)Cc1cccc2ccccc12		100 mg/kg	300	inactive	100
Cc1ccc(C(=O)N/N=C/c2c(C)nn(-c3ccccc3)c2Cl)cc1	100				
CCCC(CCC)C(=O)[O-].[Na+] [VALPROATE SODIUM]			300	inactive	
Cc1nn(-c2ccccc2)c(Cl)c1/C=N/NC(=O)c1ccc(Cl)cc1	300	300 mg/kg	100	100 mg/kg	100
Cc1nn(-c2ccccc2)c(Cl)c1/C=N/NC(=O)c1ccc(Cl)cc1Cl		inactive	300	inactive	300

— ChEMBL document CHEMBL1240429, “N'-[(5-chloro-3-methyl-1-phenyl-1H-pyrazol-4-yl)methylene] 2/4-substituted hydrazides: synthesis and anticonvulsant activity” (Eur J Med Chem, 2010)
